From PubChem BioAssay (NCI)
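Following 48 hours of exposure in 96-well plates, responses at five concentrations were used to interpolate endpoints linearly. TGI: total growth inhibition.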

Tests used:
Assay in all cases: NCI-60 cell line screen, 48 h
[1] = tested on: SNB-19 CNS
[2] = tested on: SK-OV-3 ovarian
[3] = tested on: SF-295 CNS
[4] = tested on: OVCAR-8 ovarian
[5] = tested on: UACC-62 melanoma
[6] = tested on: SNB-78 CNS
[7] = tested on: DMS 114 small cell lung
[8] = tested on: HCC-2998 colon
[9] = tested on: UACC-257 melanoma
[10] = tested on: A549 NSCLC
[11] = tested on: COLO 205 colon
[12] = tested on: LXFL 529 NSCLC
[13] = tested on: HOP-92 NSCLC
[14] = tested on: DLD-1 colon
[15] = tested on: KM12 colon
[16] = tested on: CCRF-CEM leukemia
[17] = tested on: UO-31 renal
[18] = tested on: SN12C renal
[19] = tested on: M14 melanoma
[20] = tested on: K-562 leukemia
[21] = tested on: SNB-75 CNS
[22] = tested on: SK-MEL-5 melanoma
[23] = tested on: IGROV1 ovarian
[24] = tested on: EKVX NSCLC
[25] = tested on: HT29 colon
[26] = tested on: U251 CNS
[27] = tested on: OVCAR-3 ovarian
[28] = tested on: HOP-62 NSCLC
[29] = tested on: ACHN renal
[30] = tested on: MALME-3M melanoma
[31] = tested on: HL-60(TB) leukemia
[32] = tested on: NCI-H23 lung
[33] = tested on: NCI-H522 lung
[34] = tested on: HOP-18 NSCLC
[35] = tested on: SW-620 colon
[36] = tested on: HCT-116 colon
[37] = tested on: M19-MEL melanoma
[38] = tested on: SF-539 CNS
[39] = tested on: MOLT-4 leukemia
[40] = tested on: LOX IMVI melanoma
[41] = tested on: SF-268 CNS
[42] = tested on: A498 renal
[43] = tested on: RXF 393 renal
[44] = tested on: SR leukemia
[45] = tested on: OVCAR-4 ovarian
[46] = tested on: XF 498 CNS
[47] = tested on: NCI-H460 lung
[48] = tested on: 786-0 renal
[49] = tested on: TK-10 renal
[50] = tested on: KM20L2 colon
[51] = tested on: SK-MEL-28 melanoma
[52] = tested on: NCI-H226 lung
[53] = tested on: CAKI-1 renal
[54] = tested on: HCT-15 colon
[55] = tested on: RPMI-8226 leukemia
[56] = tested on: OVCAR-5 ovarian
[57] = tested on: SK-MEL-2 melanoma
[58] = tested on: DMS 273 small cell lung
[59] = tested on: RXF-631 renal

O=C1CC2C(=O)N(Cc3ccccc3)C1C=C2S(=O)(=O)c1ccccc1 (stereo unspecified)
TGI [1]: > 100 µM
TGI [2]: > 100 µM
TGI [3]: > 100 µM
TGI [4]: > 100 µM
TGI [5]: > 100 µM
TGI [6]: > 100 µM
TGI [7]: > 100 µM
TGI [8]: > 100 µM
TGI [9]: > 100 µM
TGI [10]: > 100 µM
TGI [11]: > 100 µM
TGI [12]: > 100 µM
TGI [13]: > 100 µM
TGI [14]: > 100 µM
TGI [15]: > 100 µM
TGI [16]: > 100 µM
TGI [17]: > 100 µM
TGI [18]: > 100 µM
TGI [19]: > 100 µM
TGI [20]: > 100 µM
TGI [21]: > 100 µM
TGI [22]: > 100 µM
TGI [23]: > 100 µM
TGI [24]: > 100 µM
TGI [25]: > 100 µM
TGI [26]: > 100 µM
TGI [27]: > 100 µM
TGI [28]: > 100 µM
TGI [29]: > 100 µM
TGI [30]: > 100 µM
TGI [31]: > 100 µM
TGI [32]: > 100 µM
TGI [33]: > 100 µM
TGI [34]: > 100 µM
TGI [35]: > 100 µM
TGI [36]: > 100 µM
TGI [37]: > 100 µM
TGI [38]: > 100 µM
TGI [39]: > 100 µM
TGI [40]: > 100 µM
TGI [41]: > 100 µM
TGI [42]: > 100 µM
TGI [43]: > 100 µM
TGI [44]: > 100 µM
TGI [45]: > 100 µM
TGI [46]: > 100 µM
TGI [47]: > 100 µM
TGI [48]: > 100 µM
TGI [49]: > 100 µM
TGI [50]: > 100 µM
TGI [51]: > 100 µM
TGI [52]: > 100 µM

Cc1cc(C)[n+](CCOc2ccc(/C(=C(/Cl)c3ccccc3)c3ccccc3)cc2)c(C)c1
TGI [1]: 5.21 µM
TGI [2]: 6.54 µM
TGI [3]: 11.2 µM
TGI [4]: 8.41 µM
TGI [5]: 4.92 µM
TGI [6]: 19.5 µM
TGI [7]: 5.43 µM
TGI [8]: 2.46 µM
TGI [53]: 20.3 µM
TGI [9]: 3.28 µM
TGI [10]: 17.4 µM
TGI [11]: 0.961 µM
TGI [12]: 1.82 µM
TGI [13]: 2.7 µM
TGI [14]: 15.8 µM
TGI [15]: 2.01 µM
TGI [16]: 3.28 µM
TGI [17]: 35.7 µM
TGI [18]: 6.03 µM
TGI [19]: 6.88 µM
TGI [54]: 27.5 µM
TGI [20]: 8.11 µM
TGI [21]: 4.3 µM
TGI [22]: 1.64 µM
TGI [23]: 2.33 µM
TGI [24]: 13.2 µM
TGI [25]: 3.48 µM
TGI [26]: 4.14 µM
TGI [27]: 4.07 µM
TGI [28]: 9.06 µM
TGI [29]: 31.4 µM
TGI [55]: 3.59 µM
TGI [30]: 3.64 µM
TGI [56]: 12.4 µM
TGI [31]: 3.31 µM
TGI [32]: 6.94 µM
TGI [33]: 2.62 µM
TGI [35]: 11.1 µM
TGI [36]: 7.98 µM
TGI [57]: 2.18 µM
TGI [37]: 1.84 µM
TGI [58]: 1.48 µM
TGI [38]: 9.82 µM
TGI [39]: 11.3 µM
TGI [40]: 2.14 µM
TGI [41]: 7.55 µM
TGI [42]: 30.2 µM
TGI [43]: 7.77 µM
TGI [44]: 4.32 µM
TGI [45]: 13.5 µM
TGI [46]: 1.29 µM
TGI [47]: 8.18 µM
TGI [48]: 8.35 µM
TGI [49]: 13.1 µM
TGI [50]: 12.7 µM
TGI [51]: 3.58 µM
TGI [52]: 6.37 µM

C[n+]1cc(C(O)c2ccc3c(c2)OCO3)c2ccccc2c1 (stereo unspecified)
TGI [1]: > 100 µM
TGI [2]: > 100 µM
TGI [3]: > 100 µM
TGI [4]: > 100 µM
TGI [5]: > 100 µM
TGI [6]: > 100 µM
TGI [7]: 83.5 µM
TGI [8]: > 100 µM
TGI [53]: 69.4 µM
TGI [9]: 66.5 µM
TGI [10]: > 100 µM
TGI [11]: > 100 µM
TGI [14]: > 100 µM
TGI [15]: > 100 µM
TGI [16]: > 100 µM
TGI [17]: 92.5 µM
TGI [18]: > 100 µM
TGI [19]: 91.7 µM
TGI [54]: > 100 µM
TGI [20]: > 100 µM
TGI [21]: > 100 µM
TGI [22]: 44.2 µM
TGI [23]: > 100 µM
TGI [24]: > 100 µM
TGI [25]: > 100 µM
TGI [26]: > 100 µM
TGI [27]: > 100 µM
TGI [28]: > 100 µM
TGI [29]: > 100 µM
TGI [55]: 98.8 µM
TGI [30]: 65 µM
TGI [56]: > 100 µM
TGI [59]: > 100 µM
TGI [33]: 48.1 µM
TGI [35]: > 100 µM
TGI [36]: > 100 µM
TGI [57]: 96.1 µM
TGI [37]: > 100 µM
TGI [58]: > 100 µM
TGI [38]: > 100 µM
TGI [39]: 55.5 µM
TGI [40]: > 100 µM
TGI [41]: > 100 µM
TGI [42]: > 100 µM
TGI [43]: 62.5 µM
TGI [47]: > 100 µM
TGI [48]: > 100 µM
TGI [49]: > 100 µM
TGI [50]: > 100 µM
TGI [52]: > 100 µM

O=C1[C@H]2ON(c3ccccc3)C(c3ccc(Cl)cc3)[C@H]2C(=O)N1c1ccc(Cc2ccc(N3C(=O)[C@@H]4ON(c5ccccc5)C(c5ccc(Cl)cc5)[C@@H]4C3=O)cc2)cc1 (stereo partly specified)
TGI [1]: > 100 µM
TGI [2]: > 100 µM
TGI [3]: > 100 µM
TGI [4]: > 100 µM
TGI [5]: > 100 µM
TGI [6]: > 100 µM
TGI [7]: > 100 µM
TGI [8]: > 100 µM
TGI [53]: > 100 µM
TGI [9]: > 100 µM
TGI [10]: > 100 µM
TGI [11]: > 100 µM
TGI [12]: > 100 µM
TGI [14]: > 100 µM
TGI [15]: > 100 µM
TGI [16]: > 100 µM
TGI [17]: > 100 µM
TGI [18]: > 100 µM
TGI [19]: 66.8 µM
TGI [54]: > 100 µM
TGI [20]: > 100 µM
TGI [21]: > 100 µM
TGI [22]: > 100 µM
TGI [23]: > 100 µM
TGI [24]: > 100 µM
TGI [25]: > 100 µM
TGI [26]: > 100 µM
TGI [27]: > 100 µM
TGI [28]: > 100 µM
TGI [29]: > 100 µM
TGI [55]: > 100 µM
TGI [30]: > 100 µM
TGI [56]: > 100 µM
TGI [31]: > 100 µM
TGI [59]: > 100 µM
TGI [32]: > 100 µM
TGI [33]: > 100 µM
TGI [34]: > 100 µM
TGI [35]: > 100 µM
TGI [36]: > 100 µM
TGI [57]: > 100 µM
TGI [37]: > 100 µM
TGI [58]: > 100 µM
TGI [38]: > 100 µM
TGI [39]: > 100 µM
TGI [40]: > 100 µM
TGI [41]: > 100 µM
TGI [42]: > 100 µM
TGI [43]: > 100 µM
TGI [44]: > 100 µM
TGI [45]: > 100 µM
TGI [47]: > 100 µM
TGI [48]: > 100 µM
TGI [49]: > 100 µM
TGI [50]: > 100 µM
TGI [51]: > 100 µM
TGI [52]: > 100 µM
